Assay results taken from the supplement of paper PMC10307832.

Assays:
Assay in all cases: relative viability (nuclei count vs DMSO), 5 days (fraction); higher = more cells survive
Tipifarnib + OSI-027 = compound: Cn1cncc1[C@@](N)(c1ccc(Cl)cc1)c1ccc2c(c1)c(-c1cccc(Cl)c1)cc(=O)n2C [Tipifarnib] + COc1cccc2cc(-c3nc([C@H]4CC[C@H](C(=O)O)CC4)n4ncnc(N)c34)[nH]c12 [OSI-027] (partner 0.5 µM)
How it was run: (§1)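 Dosing by pin tool came one day after lung cancer cell lines were seeded in 1536-well plates, using either one drug or a fixed anchor-drug dose plus five library-drug doses (not always all listed) in √10 steps. After 5 days, nuclei were counted on 4× images. Relative viability is treated-well nuclei count divided by vehicle-well nuclei count, and values are medians of duplicate plates.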

Tipifarnib + Lapatinib = compound: Cn1cncc1[C@@](N)(c1ccc(Cl)cc1)c1ccc2c(c1)c(-c1cccc(Cl)c1)cc(=O)n2C [Tipifarnib] + CS(=O)(=O)CCNCc1ccc(-c2ccc3ncnc(Nc4ccc(OCc5cccc(F)c5)c(Cl)c4)c3c2)o1 [Lapatinib] (partner 2 µM)
How it was run: as §1

Tipifarnib + Linsitinib = compound: Cn1cncc1[C@@](N)(c1ccc(Cl)cc1)c1ccc2c(c1)c(-c1cccc(Cl)c1)cc(=O)n2C [Tipifarnib] + C[C@]1(O)C[C@@H](c2nc(-c3ccc4ccc(-c5ccccc5)nc4c3)c3c(N)nccn32)C1 [Linsitinib] (partner 1 µM)
How it was run: as §1

Tipifarnib + Alpelisib = compound: Cn1cncc1[C@@](N)(c1ccc(Cl)cc1)c1ccc2c(c1)c(-c1cccc(Cl)c1)cc(=O)n2C [Tipifarnib] + Cc1nc(NC(=O)N2CCC[C@H]2C(N)=O)sc1-c1ccnc(C(C)(C)C(F)(F)F)c1 [Alpelisib] (partner 2 µM)
How it was run: as §1

Cell Line	relative viability (Tipifarnib + OSI-027; first compound 0.01 µM)	relative viability (Tipifarnib + OSI-027; first compound 0.03162 µM)	relative viability (Tipifarnib + OSI-027; first compound 0.1 µM)	relative viability (Tipifarnib + OSI-027; first compound 0.3162 µM)	relative viability (Tipifarnib + OSI-027; first compound 1 µM)	relative viability (Tipifarnib + Lapatinib; first compound 0.01 µM)	relative viability (Tipifarnib + Lapatinib; first compound 0.03162 µM)	relative viability (Tipifarnib + Lapatinib; first compound 0.1 µM)	relative viability (Tipifarnib + Lapatinib; first compound 0.3162 µM)	relative viability (Tipifarnib + Lapatinib; first compound 1 µM)	relative viability (Tipifarnib + Linsitinib; first compound 0.01 µM)	relative viability (Tipifarnib + Linsitinib; first compound 0.03162 µM)	relative viability (Tipifarnib + Linsitinib; first compound 0.1 µM)	relative viability (Tipifarnib + Linsitinib; first compound 0.3162 µM)	relative viability (Tipifarnib + Linsitinib; first compound 1 µM)	relative viability (Tipifarnib + Alpelisib; first compound 0.01 µM)	relative viability (Tipifarnib + Alpelisib; first compound 0.03162 µM)	relative viability (Tipifarnib + Alpelisib; first compound 0.1 µM)	relative viability (Tipifarnib + Alpelisib; first compound 0.3162 µM)	relative viability (Tipifarnib + Alpelisib; first compound 1 µM)
NCI-H2347	0.479	0.368	0.411	0.259	0.334	0.827	0.727	0.642	0.582	0.642	0.973	0.739	0.649	0.693	0.735	1.05	0.798	0.714	0.689	0.674
NCI-H2405	0.673	0.641	0.629	0.599	0.474	1.06	0.942	0.949	0.878	0.625	0.952	0.885	0.845	0.821	0.79	0.863	0.832	0.7	0.718	0.72
NCI-H3122	0.949	0.568	0.384	0.233	0.225	1.01	0.917	0.961	0.73	0.811	1.02	0.835	0.784	0.663	0.726	0.665	0.598	0.527	0.402	0.401
PC-3 [JPC-3]	0.751	0.67	0.598	0.343	0.324	0.461	0.489	0.431	0.38	0.311	0.956	0.899	0.872	0.769	0.736	1.04	1	0.816	0.78	0.662
PC-14	0.795	0.29	0.216	0.157	0.124	0.346	0.327	0.242	0.226	0.15	0.98	0.965	0.713	0.432	0.437	0.99	0.774	0.653	0.392	0.451
RERF-LC-KJ	0.529	0.427	0.392	0.41	0.309	0.94	0.922	0.829	0.732	0.626	0.918	0.909	0.874	0.629	0.651	0.955	0.919	0.592	0.631	0.55
SK-LU-1	0.324	0.286	0.293	0.222	0.181	0.725	0.75	0.857	0.388	0.367	0.986	0.728	0.642	0.631	0.67	1.06	0.655	0.528	0.49	0.516
SK-MES-1	0.642	0.453	0.354	0.265	0.332	0.466	0.455	0.481	0.411	0.386	1.08	0.917	0.985	0.792	0.809	1.03	0.897	0.634	0.648	0.501
SW 1573	0.583	0.244	0.292	0.238	0.17	1.08	1.13	0.669	0.648	0.243	0.7	0.709	0.518	0.387	0.365	0.667	0.718	0.449	0.44	0.331
UMC-11	0.432	0.359	0.348	0.301	0.343	0.84	0.605	0.595	0.475	0.281	0.86	0.632	0.563	0.523	0.577	0.939	0.691	0.504	0.409	0.487
